#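 Assay format: 96-well plates, 48-hour exposure. Abbreviation: GI50, concentration required for 50% inhibition of growth.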 Calls of active or inactive are those of the source. Rule as the data show it: active = GI50 up to about 1.1 µM and inactive = higher.
# Tests used:
# Experiment in all cases: inhibition of tumour cell growth, NCI panel, 48 h
# SK-MEL-5 = test system: SK-MEL-5
# SNB-19 = test system: SNB-19
# SN12C = test system: SN12C
# CAKI-1 = test system: CAKI-1
# NCI-H460 = test system: NCI-H460
# OVCAR-5 = test system: OVCAR-5
# LOX IMVI = test system: LOX IMVI
# RXF 393 = test system: RXF 393
# MDA-N = test system: MDA-N
# IGROV-1 = test system: IGROV-1
# HT-29 = test system: HT-29
# UACC-62 = test system: UACC-62
# MDA-MB-435 = test system: MDA-MB-435
# HCT-116 = test system: HCT-116
# HOP-92 = test system: HOP-92
# SW-620 = test system: SW-620
# SF-268 = test system: SF-268
# RPMI-8226 = test system: RPMI-8226
# UACC-257 = test system: UACC-257
# OVCAR-3 = test system: OVCAR-3
# SR = test system: SR
# MOLT-4 = test system: MOLT-4
# MDA-MB-231 = test system: MDA-MB-231
# SF-539 = test system: SF-539
# SNB-75 = test system: SNB-75
# SK-OV-3 = test system: SK-OV-3
# DU-145 = test system: DU-145
# OVCAR-8 = test system: OVCAR-8
# SK-MEL-2 = test system: SK-MEL-2
# Malme-3M = test system: Malme-3M
# NCI-H522 = test system: NCI-H522
# 786-0 = test system: 786-0
# BT-549 = test system: BT-549
# Hs-578T = test system: Hs-578T
# EKVX = test system: EKVX
# OVCAR-4 = test system: OVCAR-4
# M14 = test system: M14
# NCI/ADR-RES = test system: NCI/ADR-RES
# SF-295 = test system: SF-295
# U-251 = test system: U-251
# NCI-H226 = test system: NCI-H226
# ACHN = test system: ACHN
# UO-31 = test system: UO-31
# COLO 205 = test system: COLO 205
# A549 = test system: A549
# MCF7 = test system: MCF7
# A498 = test system: A498
# HOP-62 = test system: HOP-62
# PC-3 = test system: PC-3
# CCRF-CEM = test system: CCRF-CEM
# TK-10 = test system: TK-10
# KM12 = test system: KM12
# T47D = test system: T47D
# HCT-15 = test system: HCT-15
# SK-MEL-28 = test system: SK-MEL-28
# NCI-H23 = test system: NCI-H23
# K562 = test system: K562
# HCC 2998 = test system: HCC 2998
# HL-60 = test system: HL-60
smiles,measurement,setting,value
NC(=O)C1=NNc2ccccc2C(=O)N1c1ccccc1,GI50,SK-MEL-5,> 100 µM (inactive)
same,GI50,SNB-19,> 100 µM (inactive)
same,GI50,SN12C,> 100 µM (inactive)
same,GI50,CAKI-1,> 100 µM (inactive)
same,GI50,NCI-H460,> 100 µM (inactive)
same,GI50,OVCAR-5,> 100 µM (inactive)
same,GI50,LOX IMVI,> 100 µM (inactive)
same,GI50,RXF 393,> 100 µM (inactive)
same,GI50,MDA-N,> 100 µM (inactive)
same,GI50,IGROV-1,> 100 µM (inactive)
same,GI50,HT-29,> 100 µM (inactive)
same,GI50,UACC-62,> 100 µM (inactive)
same,GI50,MDA-MB-435,> 100 µM (inactive)
same,GI50,HCT-116,> 100 µM (inactive)
same,GI50,HOP-92,> 10 µM (inactive)
same,GI50,SW-620,> 100 µM (inactive)
same,GI50,SF-268,> 100 µM (inactive)
same,GI50,RPMI-8226,> 100 µM (inactive)
same,GI50,UACC-257,> 100 µM (inactive)
same,GI50,OVCAR-3,> 100 µM (inactive)
same,GI50,SR,> 100 µM (inactive)
same,GI50,MOLT-4,> 100 µM (inactive)
same,GI50,MDA-MB-231,> 100 µM (inactive)
same,GI50,SF-539,> 100 µM (inactive)
same,GI50,SNB-75,14.5 µM (inactive)
same,GI50,SK-OV-3,> 100 µM (inactive)
same,GI50,DU-145,> 100 µM (inactive)
same,GI50,OVCAR-8,> 100 µM (inactive)
same,GI50,SK-MEL-2,> 100 µM (inactive)
same,GI50,Malme-3M,> 100 µM (inactive)
same,GI50,NCI-H522,> 100 µM (inactive)
same,GI50,786-0,> 100 µM (inactive)
same,GI50,BT-549,> 100 µM (inactive)
same,GI50,Hs-578T,> 100 µM (inactive)
same,GI50,EKVX,> 100 µM (inactive)
same,GI50,OVCAR-4,> 100 µM (inactive)
same,GI50,M14,> 100 µM (inactive)
same,GI50,NCI/ADR-RES,> 100 µM (inactive)
same,GI50,SF-295,> 100 µM (inactive)
same,GI50,U-251,> 100 µM (inactive)
same,GI50,NCI-H226,> 100 µM (inactive)
same,GI50,ACHN,> 100 µM (inactive)
same,GI50,UO-31,> 100 µM (inactive)
same,GI50,COLO 205,> 100 µM (inactive)
same,GI50,A549,> 100 µM (inactive)
same,GI50,MCF7,> 100 µM (inactive)
same,GI50,A498,> 100 µM (inactive)
same,GI50,HOP-62,> 100 µM (inactive)
same,GI50,PC-3,> 100 µM (inactive)
same,GI50,CCRF-CEM,> 100 µM (inactive)
same,GI50,TK-10,> 100 µM (inactive)
same,GI50,KM12,> 100 µM (inactive)
same,GI50,T47D,> 100 µM (inactive)
same,GI50,HCT-15,> 100 µM
same,GI50,SK-MEL-28,> 100 µM (inactive)
O=[N+]([O-])c1ccc(-c2nc3cc(Cl)ccc3[nH]2)cc1,GI50,SK-MEL-5,51.4 µM (inactive)
same,GI50,SNB-19,78.5 µM (inactive)
same,GI50,SN12C,43.6 µM (inactive)
same,GI50,CAKI-1,62.7 µM (inactive)
same,GI50,NCI-H460,37.2 µM (inactive)
same,GI50,LOX IMVI,46.2 µM (inactive)
same,GI50,MDA-N,39.7 µM (inactive)
same,GI50,IGROV-1,81.3 µM (inactive)
same,GI50,HT-29,51.4 µM (inactive)
same,GI50,UACC-62,81.1 µM (inactive)
same,GI50,MDA-MB-435,41.6 µM (inactive)
same,GI50,HCT-116,49.2 µM (inactive)
same,GI50,HOP-92,46.7 µM (inactive)
same,GI50,SW-620,62.4 µM (inactive)
same,GI50,SF-268,> 100 µM (inactive)
same,GI50,RPMI-8226,25.5 µM (inactive)
same,GI50,UACC-257,76 µM (inactive)
same,GI50,OVCAR-3,45.1 µM (inactive)
same,GI50,SR,34.6 µM (inactive)
same,GI50,MOLT-4,64 µM (inactive)
same,GI50,MDA-MB-231,> 100 µM (inactive)
same,GI50,SF-539,54.6 µM (inactive)
same,GI50,SNB-75,73.5 µM (inactive)
same,GI50,SK-OV-3,> 100 µM (inactive)
same,GI50,DU-145,72.1 µM (inactive)
same,GI50,OVCAR-8,59.6 µM (inactive)
same,GI50,Malme-3M,> 100 µM (inactive)
same,GI50,NCI-H522,14.4 µM (inactive)
same,GI50,786-0,86.7 µM (inactive)
same,GI50,BT-549,99.1 µM (inactive)
same,GI50,Hs-578T,> 100 µM (inactive)
same,GI50,EKVX,69.5 µM (inactive)
same,GI50,OVCAR-4,95.5 µM (inactive)
same,GI50,M14,60.7 µM (inactive)
same,GI50,NCI/ADR-RES,31.3 µM (inactive)
same,GI50,SF-295,39.2 µM (inactive)
same,GI50,NCI-H226,82.6 µM (inactive)
same,GI50,ACHN,50.1 µM (inactive)
same,GI50,NCI-H23,42.5 µM (inactive)
same,GI50,UO-31,26.1 µM (inactive)
same,GI50,COLO 205,32.9 µM (inactive)
same,GI50,A549,42.3 µM (inactive)
same,GI50,MCF7,27.3 µM (inactive)
same,GI50,HOP-62,> 100 µM (inactive)
same,GI50,PC-3,32.7 µM (inactive)
same,GI50,TK-10,> 100 µM (inactive)
same,GI50,T47D,39.1 µM (inactive)
same,GI50,HCT-15,52 µM
same,GI50,SK-MEL-28,> 100 µM (inactive)
COC(=O)C1=C(OC(=O)/C(=C/c2ccccc2)c2ccc(OC)cc2)C(C(=O)OC)[C@@]2(O)[C@@H](C(=O)OC)[C@H](C)C[C@@H]1[C@@H]2C(=O)OC (some centres not stated),GI50,SK-MEL-5,> 100 µM (inactive)
same,GI50,SNB-19,32.4 µM (inactive)
same,GI50,SN12C,> 100 µM (inactive)
same,GI50,CAKI-1,> 100 µM (inactive)
same,GI50,NCI-H460,> 100 µM (inactive)
same,GI50,OVCAR-5,65.6 µM (inactive)
same,GI50,LOX IMVI,> 100 µM (inactive)
same,GI50,RXF 393,17.8 µM (inactive)
same,GI50,MDA-N,> 100 µM (inactive)
same,GI50,IGROV-1,55.7 µM (inactive)
same,GI50,HT-29,> 100 µM (inactive)
same,GI50,UACC-62,> 100 µM (inactive)
same,GI50,K562,> 100 µM (inactive)
same,GI50,MDA-MB-435,> 100 µM (inactive)
same,GI50,HCT-116,> 100 µM (inactive)
same,GI50,SW-620,> 100 µM (inactive)
same,GI50,SF-268,> 100 µM (inactive)
same,GI50,RPMI-8226,> 100 µM (inactive)
same,GI50,UACC-257,> 100 µM (inactive)
same,GI50,OVCAR-3,> 100 µM (inactive)
same,GI50,SR,> 100 µM (inactive)
same,GI50,MOLT-4,> 100 µM (inactive)
same,GI50,MDA-MB-231,18.7 µM (inactive)
same,GI50,SF-539,> 100 µM (inactive)
same,GI50,SNB-75,24.2 µM (inactive)
same,GI50,SK-OV-3,80.4 µM (inactive)
same,GI50,DU-145,> 100 µM (inactive)
same,GI50,OVCAR-8,35.6 µM (inactive)
same,GI50,SK-MEL-2,> 100 µM (inactive)
same,GI50,Malme-3M,> 100 µM (inactive)
same,GI50,NCI-H522,35.3 µM (inactive)
same,GI50,786-0,26.1 µM (inactive)
same,GI50,BT-549,21 µM (inactive)
same,GI50,Hs-578T,20.6 µM (inactive)
same,GI50,EKVX,> 100 µM (inactive)
same,GI50,OVCAR-4,> 100 µM (inactive)
same,GI50,M14,> 100 µM (inactive)
same,GI50,HCC 2998,> 100 µM (inactive)
same,GI50,NCI/ADR-RES,> 100 µM (inactive)
same,GI50,SF-295,> 100 µM (inactive)
same,GI50,U-251,63.2 µM (inactive)
same,GI50,NCI-H226,> 100 µM (inactive)
same,GI50,ACHN,> 100 µM (inactive)
same,GI50,HL-60,> 100 µM (inactive)
same,GI50,NCI-H23,50.1 µM (inactive)
same,GI50,UO-31,> 100 µM (inactive)
same,GI50,COLO 205,> 100 µM (inactive)
same,GI50,A549,50.1 µM (inactive)
same,GI50,MCF7,> 100 µM (inactive)
same,GI50,A498,> 100 µM (inactive)
same,GI50,HOP-62,> 100 µM (inactive)
same,GI50,PC-3,> 100 µM (inactive)
same,GI50,CCRF-CEM,> 100 µM (inactive)
same,GI50,TK-10,> 100 µM (inactive)
same,GI50,KM12,> 100 µM (inactive)
same,GI50,T47D,> 100 µM (inactive)
same,GI50,HCT-15,> 100 µM
same,GI50,SK-MEL-28,> 100 µM (inactive)
